# Test results published in article PMC8072159, “5-Bis-(2,6-difluoro-benzylidene) Cyclopentanone Acts as a Selective 11β-Hydroxysteroid Dehydrogenase one Inhibitor to Treat Diet-Induced Nonalcoholic Fatty Liver Disease in Mice” (Frontiers in Pharmacology, 2021).
# “Also recorded” adds a separate entry of the source.
# Legend:
# Type in all cases: biochemical
# 11β-HSD1 = target: T1, 11β-HSD1 (Rattus norvegicus, UniProt P16232); experiment: 11β-HSD1 reductive activity in rat liver microsomes
# T1 construct: from tissue; host or cells: liver microsomes of male Sprague Dawley rats, prepared in house
# Experimental: (§1) Preparation of Rat and Mouse Liver and Kidney Microsomes
# The liver and kidney microsomes were prepared as previously described ([Guo et al., 2012]). Briefly, the tissue was homogenized in […] phosphate buffered saline (PBS) containing 0.25 M sucrose, and the nuclei and large cell debris were removed by centrifugation at 1500 g for 10 min. The supernatant was transferred to a tube and the mitochondria were removed by centrifugation at 10, 000 × g for 30 min. The supernatant was transferred to an ultracentrifuge tube and centrifuged twice at 105,000 × g, the resulting microsomal precipitate was collected. The protein content was measured by the BCA kit according to the manufacturer’s instruction. The protein concentration was adjusted to 20 mg/ml. These proteins were used to measure 11β-HSD1 and 11β-HSD2 activities. […]
# The reductive activity of 11β-HSD1 in rat, mouse, and human liver microsomes was measured as previously described ([Ge et al., 2005]). […] 11β-HSD1 activity was measured using 11-DHC or cortisone as a substrate. […] The inhibitory ability of the chemical relative to the control (DMSO solvent) was measured. […] The steroids in chloroform and methanol (90:10, v/v) were chromatographically separated on a thin layer plate, and radioactivity was measured using a scanning radiometer (System AR2000, Bioscan Inc., Washington, DC, United States). […]
# 11β-HSD2 [1] = target: T2, 11β-HSD2 (Rattus norvegicus, UniProt P50233); experiment: 11β-HSD2 activity in rat kidney microsomes; conditions: 100 μM
# T2 construct: from tissue; host or cells: rat kidney microsomes prepared in house
# T2 sequence (P50233 1-400): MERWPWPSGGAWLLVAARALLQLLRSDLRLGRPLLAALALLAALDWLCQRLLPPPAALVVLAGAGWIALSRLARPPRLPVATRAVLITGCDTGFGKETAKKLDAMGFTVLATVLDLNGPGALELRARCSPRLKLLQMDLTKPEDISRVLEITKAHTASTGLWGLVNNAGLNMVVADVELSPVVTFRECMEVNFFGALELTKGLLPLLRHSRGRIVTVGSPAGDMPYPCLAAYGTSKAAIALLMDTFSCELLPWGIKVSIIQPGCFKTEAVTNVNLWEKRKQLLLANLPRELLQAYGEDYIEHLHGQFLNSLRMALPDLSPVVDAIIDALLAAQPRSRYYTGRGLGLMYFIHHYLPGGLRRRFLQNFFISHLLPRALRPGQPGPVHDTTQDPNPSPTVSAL
# Experimental: as §1
# (§2) The liver and kidney microsomes were prepared as previously described ([Guo et al., 2012]). Briefly, the tissue was homogenized in […] phosphate buffered saline (PBS) containing 0.25 M sucrose, and the nuclei and large cell debris were removed by centrifugation at 1500 g for 10 min. The supernatant was transferred to a tube and the mitochondria were removed by centrifugation at 10, 000 × g for 30 min. The supernatant was transferred to an ultracentrifuge tube and centrifuged twice at 105,000 × g, the resulting microsomal precipitate was collected. The protein content was measured by the BCA kit according to the manufacturer’s instruction. The protein concentration was adjusted to 20 mg/ml. These proteins were used to measure 11β-HSD1 and 11β-HSD2 activities.
# (§3) Measurement of 11β-HSD2 Activity in Rat, Mouse, and Human Kidney Microsomes
# (§4) The 11β-HSD2 assay was based on rat, mouse, and human kidney microsomes, as previously described ([Ge et al., 2005]). In brief, the 11β-HSD2 activity assay tube contained 25 nM substrate (cortisol for humans, CORT for rats and mice). […] The percentage conversion of cortisol to cortisone (humans) or CORT to 11DHC (rats and mice) was calculated by dividing the radioactive count of an 11keto-steroid product by the total count associated with both substrate and product.
# 11β-HSD2 [2] = target: T3, 11β-HSD2 (Mus musculus, UniProt P51661); experiment: 11β-HSD2 activity in mouse kidney microsomes; conditions: 100 μM
# T3 construct: from tissue; host or cells: mouse kidney microsomes prepared in house
# T3 sequence (P51661 1-386): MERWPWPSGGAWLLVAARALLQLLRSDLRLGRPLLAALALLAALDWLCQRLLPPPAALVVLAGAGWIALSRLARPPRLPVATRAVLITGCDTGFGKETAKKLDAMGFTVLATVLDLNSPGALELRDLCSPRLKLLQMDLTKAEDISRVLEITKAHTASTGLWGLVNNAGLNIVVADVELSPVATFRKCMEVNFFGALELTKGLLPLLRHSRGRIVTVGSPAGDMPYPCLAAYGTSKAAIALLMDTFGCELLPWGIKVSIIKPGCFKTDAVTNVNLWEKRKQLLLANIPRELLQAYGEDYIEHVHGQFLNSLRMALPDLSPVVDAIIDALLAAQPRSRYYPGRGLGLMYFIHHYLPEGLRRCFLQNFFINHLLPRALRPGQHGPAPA
# Experimental: as §1, §2, §3, §4
# 11β-HSD2 [3] = target: T4, 11β-HSD2 (Homo sapiens, UniProt P80365); experiment: 11β-HSD2 activity in human kidney microsomes; conditions: 100 μM
# T4 construct: purchased Gentest (Woburn, MA); host or cells: human kidney microsomes (tissue)
# T4 sequence (P80365 1-405): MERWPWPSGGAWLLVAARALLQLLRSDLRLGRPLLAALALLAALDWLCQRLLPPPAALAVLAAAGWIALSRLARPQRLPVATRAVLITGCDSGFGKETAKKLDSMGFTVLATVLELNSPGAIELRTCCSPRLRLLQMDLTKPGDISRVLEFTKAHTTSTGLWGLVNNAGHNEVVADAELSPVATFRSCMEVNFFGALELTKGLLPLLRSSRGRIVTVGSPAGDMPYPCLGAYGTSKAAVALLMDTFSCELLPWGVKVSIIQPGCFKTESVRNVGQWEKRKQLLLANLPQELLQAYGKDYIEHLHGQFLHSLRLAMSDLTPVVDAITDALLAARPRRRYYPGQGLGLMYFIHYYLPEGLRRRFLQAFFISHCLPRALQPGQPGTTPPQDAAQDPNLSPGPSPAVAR
# Experimental: as §3
# The 11β-HSD2 assay was based on rat, mouse, and human kidney microsomes, as previously described ([Ge et al., 2005]). In brief, the 11β-HSD2 activity assay tube contained 25 nM substrate (cortisol for humans, CORT for rats and mice). Renal microsomes (10 μg) were incubated with substrate and 0.2 mM NAD^+ for 30 min. Other procedures were described above. The percentage conversion of cortisol to cortisone (humans) or CORT to 11DHC (rats and mice) was calculated by dividing the radioactive count of an 11keto-steroid product by the total count associated with both substrate and product.
# T1 sequence (P16232 whole entry): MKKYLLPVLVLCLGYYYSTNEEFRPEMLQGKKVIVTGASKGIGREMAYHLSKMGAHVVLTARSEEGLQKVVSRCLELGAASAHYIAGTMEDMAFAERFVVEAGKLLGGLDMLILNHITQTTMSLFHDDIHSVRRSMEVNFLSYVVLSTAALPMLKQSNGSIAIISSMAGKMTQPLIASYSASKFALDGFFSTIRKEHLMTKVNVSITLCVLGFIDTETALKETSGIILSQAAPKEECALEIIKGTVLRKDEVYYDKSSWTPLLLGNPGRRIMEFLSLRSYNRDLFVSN
structure (smiles),measurement,setting,value
"O=C1/C(=C/c2c(F)cccc2F)CC/C1=C\c1c(F)cccc1F [WZS08, (2E,5E)-2,5-bis(2,6-difluorobenzylidene) Cyclopentanone]",inhibition at 100 µM,"11β-HSD1; 100 μM, initial screening, read-out: 11β-HSD1 inhibition, rat enzyme",93.9 ± 0.42%
same,IC50,"11β-HSD1; rat liver microsomes, 25 nM 11DHC, NADPH",378 nM
same,"effect on 11β-HSD2 activity, rat",11β-HSD2 [1],did not affect; also recorded: almost no effect
same,"effect on 11β-HSD2 activity, mouse",11β-HSD2 [2],did not affect; also recorded: almost no effect
same,"effect on 11β-HSD2 activity, human",11β-HSD2 [3],did not affect; also recorded: almost no effect
